Experimental data reported in US20060142393A1, “Bis(thio-hydrazide amides) for treatment of hyperplasia” (priority 2004, published 2006).
Like-named read-outs stand apart in the source and are kept apart here.

How the values were obtained:
[1] = tested on: MES-SA/DX5; experiment: MTS growth inhibition, multi-drug resistant MES-SA/DX5 cells; format: cell-based, human; settings: for IC50: Homo sapiens
Protocol: (§1) The in vitro activity of the compounds was assessed in a selected set of human cancer cell lines.
(§2) MES—SA, a model of uterine sarcoma, is sensitive to a number of chemotherapeutic agents, including Doxorubicin, Dactinomycin, Mitomycin C, Taxol™ and Bleomycin, but resistant to Vinblastine and Cisplatin. MES—SA/DX5 was established in the presence of increasing concentrations of Doxorubicin. […] Both MES—SA and MES—SA/Dx5 were purchased from ATCC (ATCC CRL-1976 and ATCC CRL-1977, respectively).
(§3) All experiments were performed on exponentially growing cell culture. Cell densities were 2.5×10^4 cells/ml in all experiment except special.

[2] = tested on: CEM; experiment: MTS cytotoxicity, CEM T cell leukemia; settings: Homo sapiens, CCRF-CEM, 72 h, read-out: In vitro Cytotoxicity IC50, CEM
Protocol: (§4) The in vitro activity of the compounds was determined in a selected set of human leukemia cell lines. CEM (T-cell leukemia), Jurkat (T-cell leukemia), K562 (chronic myelocyte), THP-1 (monocyte), SB (B-cell leukemia), U937 (lymphoma) were purchased from ATCC. H2 leukemia cell line was a gift from Harvard Medical School. The cell lines were maintained in RPMI1640(GIBCO) supplemented with 10% FCS, 100 units/ml penicillin, 100 ug/ml streptomycin, and 2 mM L-glutamine. […] All experiments were performed on exponentially growing cell culture. Cell densities were 2.5×10^4 cells/mL in all experiments.
(§5) Final concentrations […] were obtained by diluting the stock solution directly into the tissue culture medium. Cells were incubated with varying concentrations of compounds for 72 hours and the IC50 was determined by MTS (i.e. […]) assay.

[3] = tested on: MDA-435 human breast tumor; experiment: MDA-435 human breast carcinoma tumors in nude mice, combination with Epothilone D; format: in vivo; settings: Compound (1) 50 mg/kg + Epothilone D 5 mg/kg intravenously, 3 times a week for 3 weeks
Protocol: A supplemented media was prepared from 50% DMEM/Dulbecco Modified Eagle Medium (High Glucose), 50% RPMI 1640, 10% FBS/Fetal Bovine Serum (Hybridoma Tested; Sterile Filtered), 1% L-Glutamine, 1% Penicillin-Streptomycin, 1% MEM Sodium Pyruvate and 1% MEM Non-Essential Amino Acids. FBS was obtained from Sigma Chemical Co. and other ingredients were obtained from Invitrogen Life Technologies, USA). The supplemental media was warmed to 37° C and 50 ml of media was added to a 175 cm^2 tissue culture flask.
The cells used in the assay were MDA-435 Human Breast Carcinoma from the American Type Culture Collection. 1 vial of MDA-435 cells from the liquid nitrogen frozen cell stock was removed. The frozen vial of cells was immediately placed into a 37° C. water bath and gently swirled until thawed. The freeze-vial was wiped with 70% ethanol and cells were immediately pipetted into the 175 cm^2 tissue culture flask containing supplemented media. […]

[4] = tested on: SB; experiment: MTS cytotoxicity, SB B cell leukemia; settings: Homo sapiens, 72 h, read-out: In vitro Cytotoxicity IC50, SB
Protocol: as §4, §5

[5] = tested on: HL-60/TX1000; experiment: MTS growth inhibition, multi-drug resistant HL-60/TX1000 cells; format: cell-based, human; settings: for IC50: Homo sapiens, HL60/TX1000, 72 hours, MTS assay, MDR cell line
Protocol: (§6) The in vitro activity of the compounds was assessed in a selected set of human cancer cell lines. Three pairs of tumor cell lines (non-resistant/resistant) were used to identify novel potent antitumor compounds which are capable of overcoming multi-drug resistance.
(§7) HL-60, a model of myeloid leukemia, was obtained from ATCC (ATCC CCL-240); and HL60/TX1000 was isolated in vitro by subculturing HL-60 in progressively higher concentration of Taxol™. HL-60/TX1000 cells over-express mdr-1 mRNA and p-glycoprotein (PCP), as determined by western blot and immunofluorescence labeling with antiPGP antibodies. The cells are cross-resistant to Taxol™, Vincristine, Adriamycin, Etoposide and Doxorubicin.
as §3

[6] = tested on: Bowes/OV2; experiment: MTS growth inhibition, Vincristine resistant Bowes/OV2 cells; format: cell-based, human; settings: for IC50: Homo sapiens, 72 hours, MTS assay, MDR cell line
Protocol: as §6
(§8) Bowes is a melanoma cell line; and Bowes/OV2 is a Vincristine resistant Bowes melanoma cell line.
as §3

[7] = tested on: Bowes; experiment: MTS growth inhibition, Bowes melanoma cells; format: cell-based; settings: Homo sapiens, 72 h, MTS assay
Protocol: as §6, §8, §3

[8] = tested on: CEM cells; experiment: Human T-cell leukemia (CEM) growth in SCID mice, FACS quantitation of CEM cells in blood; format: in vivo; settings: 25 mg/kg intraperitoneally twice a day for 3 weeks; blood at day 33; CEM cells in white blood cells by FACS
Text: Human T-cell leukemia cell line, CEM, was obtained from American Type Culture Collection. Eight-week old female SCID mice were purchased from Charles Rive Laboratories (Wilmington, Mass.). FITC conjugated anti-human […] was obtained from BD […]). ACK lysing buffer was obtained from BioWhittaker. […] After three weeks treatment, blood was taken from mouse retro-orbital sinus at day 33. Red blood cells were partially lyzed with ACK lysing buffer. The cells were stained with FITC conjugated anti-human […] antibody for one hour at 4° C. FACS analysis was performed to quantitate the amount of CEM cells in the blood. White blood cells were gated for FACS analysis.

[9] = tested on: HL-60; experiment: MTS growth inhibition, HL-60 cells; format: cell-based; settings: Homo sapiens, HL-60, 72 h, MTS assay
Protocol: as §6, §7, §3

[10] = tested on: MES-SA/DX5 human sarcoma tumor; experiment: MES-SA/DX5 human uterine sarcoma tumors in nude mice; format: in vivo; settings: 15 mg/kg intravenously, 3 times a week for 3 weeks
Protocol: A supplemented media was prepared from 50% DMEM/Dulbecco Modified Eagle Medium (High Glucose), 50% RPMI 1640, 10% FBS/Fetal Bovine Serum (Hybridoma Tested; Sterile Filtered), 1% L-Glutamine, 1% Penicillin-Streptomycin, 1% MEM Sodium Pyruvate and 1% MEM Non-Essential Amino Acids. FBS was obtained from Sigmna Chemical Co. and other ingredients were obtained from Invitrogen Life Technologies, USA). The supplemental media was warmed to 37° C. and 50 ml of media was added to a 175 cm^2 tissue culture flask.
The cells used in the assay were multi-drug resistant MES—SA/DX-5 Human Uterine Sarcoma cells from the American Type Culture Collection. 1 vial of MES—SA/DX-5 cells from the liquid nitrogen frozen cell stock was removed. The frozen vial of cells was immediately placed into a 37° C. water bath and gently swirled until thawed. The freeze-vial was wiped with 70% ethanol and cells were immediately pipetted into the 175 cm^2 tissue culture flask containing supplemented media. […]
The flask was washed with 10 ml of sterile room temperature phosphate buffered saline (PBS). […] The supernatant was aspirated and the cell pellet was resuspended in 10 ml of supplemented media and the cells were counted. […]
The above procedure for trypsinizing and centrifuging the cells were followed. The supernatant was aspirated and the cell pellet was resuspended in 10 ml of sterile PBS and the cells were counted. […]

[11] = tested on: K-562; experiment: MTS cytotoxicity, K-562 chronic myelocyte; format: cell-based; settings: Homo sapiens, K562, 72 hours, MTS assay, read-out: In vitro Cytotoxicity IC50, K-562
Protocol: as §4, §5

[12] = tested on: H2; experiment: MTS cytotoxicity, H2 leukemia; format: cell-based; settings: Homo sapiens, 72 hours, MTS assay, read-out: In vitro Cytotoxicity IC50, H2
Protocol: as §4, §5

[13] = MTS cytotoxicity, 39SK normal fibroblast; format: cell-based; settings: human, 39SK cells (normal fibroblast), MTS assay, read-out: In vitro Cytotoxicity IC50, 39SK
[14] = tested on: Jurkat; experiment: MTS cytotoxicity, Jurkat T cell leukemia; settings: Homo sapiens, 72 h, read-out: In vitro Cytotoxicity IC50, Jurkat
Protocol: as §4, §5

[15] = tested on: U937; experiment: MTS cytotoxicity, U937 lymphoma; format: cell-based; settings: Homo sapiens, U-937, 72 hours, MTS assay, read-out: In vitro Cytotoxicity IC50, U937
Protocol: as §4, §5

[16] = tested on: THP-1; experiment: MTS cytotoxicity, THP-1 monocyte; settings: Homo sapiens, THP-1, 72 h, read-out: In vitro Cytotoxicity IC50, THP-1
Protocol: as §4, §5

[17] = tested on: MES-SA; experiment: MTS growth inhibition, MES-SA cells; format: cell-based; settings: Homo sapiens, 72 h, MTS assay
Protocol: as §1, §2, §3

[18] = MES-SA/Dx5, Example 2, protocol of Example 1, MDR uterine sarcoma cell line, read-out: IC50 MES/DX5
[19] = MES-SA/Dx5, read-out: IC50 MES/DX5
[20] = MES-SA/Dx5, 72 hours, MTS assay, MDR cell line, read-out: IC50 MES-SA/DX5

`CN(NC(=O)CC(=O)NN(C)C(=S)C1CC1)C(=S)C1CC1` [(18)] showed an IC50 [1, 18] of 10 nM.
In the case of `CN(NC(=O)CC(=O)NN(C)C(=S)c1ccccc1)C(=S)c1ccccc1` [Compound (1)], the IC50 [2] is reported as 10 nM, the “effect on anti-tumor activity of Epothilone D” value ([3]; FIG. 2) is reported as “significantly enhanced anti-tumor activity of Epothilone D” and the “toxicity of combination with Epothilone D (body weight)” value ([3]; FIG. 3) is reported as “without increasing toxicity”. The IC50 ([1]; MES-SA/Dx5, 72 h, read-out: IC50 MES-SA/DX5) was 5 nM, the “specificity against MES-SA/DX5” value ([1]; IC50 MES-SA / IC50 MES-SA/DX5 (=0.05/0.005)) was 10 and the IC50 [4] was 5 nM. The IC50 [5] was 50 nM, the “specificity against HL60/TX1000” value ([5]; IC50 HL-60 / IC50 HL-60/TX1000 (=0.4/0.05)) was 8 and the IC50 [6] was 10 nM. For the same compound, the “specificity against Bowes/OV2” value ([6]; IC50 Bowes / IC50 Bowes/OV2 (=0.2/0.01)) was 20, the IC50 [7] was 200 nM and the “% circulating leukemia cells” value [8] was roughly 4.6%. It also gave an IC50 [9] of 400 nM.
`COc1cccc(C(=S)N(C)NC(=O)C(C)C(=O)NN(C)C(=S)c2cccc(OC)c2OC)c1OC` [Compound (12)] gave an IC50 [1, 19] of 5 nM.
`COc1ccc(C)c(C(=S)N(C)NC(=O)CC(=O)NN(C)C(=S)c2cc(OC)ccc2C)c1` [Compound (13)] showed an IC50 [1, 19] of 50 nM.
Work on `CN(NC(=O)CC(=O)NN(C)C(=S)c1cc(Cl)ccc1Cl)C(=S)c1cc(Cl)ccc1Cl` [Compound (14)] yielded an IC50 [1, 19] of 10 nM.
For `CCN(NC(=O)C(C)C(=O)NN(CC)C(=S)c1ccccc1)C(=S)c1ccccc1` [Compound (16)], the IC50 [1, 19] was 50 nM, the “toxicity (body weight suppression, behavior changes)” value [10] was “no obvious toxicity” and the “tumor growth of MES/SA-DX5 compared to vehicle treated mice” value ([10]; FIG. 1) was “significantly inhibits the tumor growth”.
With `CC(=O)O[C@H]1C(=O)[C@@]2(C)[C@H]([C@H](OC(=O)c3ccccc3)[C@]3(O)C[C@H](OC(=O)[C@H](O)[C@@H](NC(=O)c4ccccc4)c4ccccc4)C(C)=C1C3(C)C)[C@]1(OC(C)=O)CO[C@@H]1C[C@@H]2O` [Taxol ™, paclitaxel] the IC50 [11] was 5 nM, the IC50 [2] was 10 nM and the IC50 [12] was 5 nM. The IC50 at 72 h [13] was 1000 nM, the IC50 [14] was 1 nM and the IC50 [1, 20] was 5000 nM. The IC50 [1, 18] was 5000 nM, the IC50 [4] was 1 nM and the IC50 [5] was 5000 nM. It also gave an IC50 [15] of 5 nM, an IC50 [6] of 5000 nM and an IC50 [16] of 5 nM. The IC50 [9] was 2 to 5 nM.
Work on `CC[C@]1(O)C[C@H]2CN(CCc3c([nH]c4ccccc34)[C@@](C(=O)OC)(c3cc4c(cc3OC)N(C=O)[C@H]3[C@@](O)(C(=O)OC)[C@H](OC(C)=O)[C@]5(CC)C=CCN6CC[C@]43[C@@H]65)C2)C1` [Vincristine] yielded an IC50 [11] of 5 nM, an IC50 [2] of 5 nM and an IC50 [12] of 5 nM. It also gave an IC50 [17] of 2 to 5 nM, an IC50 at 72 h [13] of 1000 nM and an IC50 [14] of 1 nM. The IC50 [1, 20] was 5000 nM, the IC50 [4] was 1 nM and the IC50 [5] was 5000 nM. For the same compound, the IC50 [15] was 5 nM, the IC50 [6] was 5000 nM and the IC50 [7] was 2 to 5 nM. For the same compound, the IC50 [16] was 5 nM and the IC50 [9] was 2 to 5 nM.
